“Also recorded” adds a separate entry of the source. Where two headings read alike, the source gives them in different places.
Legend:
[1] = tested on: P. aeruginosa PAO1/pME-IMP-1; experiment: Susceptibility testing, IMP-1-producing P. aeruginosa PAO1; assay type: cell-based; details: Pseudomonas aeruginosa
Method: (§1) MICs were determined via the microdilution method according to the CLSI guidelines ([38]). In brief, 5 × 10^4 bacterial cells were inoculated in 100 μl of cation-adjusted Mueller-Hinton broth (Becton, Dickinson and Company, Franklin Lakes, NJ) containing the β-lactams and appropriately diluted inhibitors. The final concentration of DMSO was maintained at 2% in the assays. The tested plates were then incubated at 35°C for 16 to 20 h. The MIC value was determined as the lowest concentration of tested β-lactams where no bacterial growth was visibly observed. The optical density at 600 nm (OD600) value was measured using a plate reader for drawing the heat maps. The FIC index value was calculated using the following equation: FIC index=MIC of β-lactam with inhibitor/MIC of β-lactam alone+MIC of inhibitor with β-lactam/MIC of inhibitor alone

[2] = tested on: E. coli BL21(DE3)/pET-KHM-1; experiment: Susceptibility testing, KHM-1-producing E. coli; assay type: cell-based; details: Escherichia coli
Method: as §1

[3] = tested on: NDM-type MBL-producing Enterobacteriaceae; experiment: Susceptibility testing, 14 NDM-type MBL-producing Enterobacteriaceae isolates; assay type: cell-based; details: 10 μg/ml SFC, NDM-producing Enterobacteriaceae
Method: as §1

VIM-2 = target: T1, VIM-2 (Escherichia coli, UniProt Q5U7L7); experiment: Inhibition of IPM hydrolysis by purified VIM-2, Ki by Lineweaver-Burk plots; assay type: biochemical; details: IPM as substrate, competitive model, mean of three replicates; read-out: Inhibition constant Ki VIM-2
T1 construct: made in house
Method: (§2) MBL (10 nM) was mixed with the inhibitors and incubated for 5 min at 30°C. IPM was added to reach a concentration of 150 μM, and the velocity of IPM hydrolysis was monitored at 298 nm. The assay was performed at 30°C using 10 mM HEPES (pH 7.5) buffer containing 200 mM NaCl and 50 μg/ml bovine serum albumin (BSA) for IMP-1, NDM-1, VIM-2, and SMB-1. For SFH-1 and L1, another 10 mM HEPES (pH 7.5) buffer containing 200 mM NaCl, 20 μM ZnSO4, and 50 μg/ml BSA was used.
Initial velocities (vo) were measured after varying the concentrations of IPM and inhibitors, and inverse velocities (1/vo) were plotted against inverse IPM concentrations […]. Lineweaver-Burk plots were constructed to obtain the inhibition constant (Ki) with the competitive inhibition model using the SigmaPlot 13 suite (Hulinks).

[4] = tested on: E. coli BL21(DE3)/pET-SPM-1; experiment: Susceptibility testing, SPM-1-producing E. coli; assay type: cell-based; details: Escherichia coli
Method: as §1

[5] = tested on: E. coli BL21(DE3)/pET-SIM-1; experiment: Susceptibility testing, SIM-1-producing E. coli; assay type: cell-based; details: Escherichia coli
Method: as §1

[6] = Acute toxicity study in mice; assay type: in vivo; details: male, CD1, mouse, in vivo, ip, intraperitoneal (i.p.) single injection, read-out: 50% lethal dose (LD50)
Method: (§3) All experiments were approved by the Nagoya University Animal Ethics Committee, and all experiments were performed in a manner that minimized animal suffering. Male CD1 mice (4 weeks old; 20 to 25 g body weight) were purchased from Charles River Laboratories Japan (Yokohama, Japan). E. coli NUBL-24 (blaIMP-1) and K. pneumoniae MS5674 (blaNDM-1 and blaVIM-1) strains were inoculated on LB agar plates and grown for 18 h at 37°C. Bacteria were then scraped from the plates, and their concentration was adjusted to 5 × 10^6 to 1 × 10^7 CFU in saline solution containing 5% mucin; this solution was then i.p. injected into the mice. At 1 and 3 h after infection, saline solution, MPM, inhibitors, and a combination of MPM and inhibitor were i.p. injected. Mice were monitored for 7 days to formulate survival curves, after which they were euthanized by CO2 asphyxiation.
(§4) For acute toxicity studies, mice were i.p. (400 μl/injection) or i.v. (150 μl/injection) administered a single injection of serially diluted SFC. Mortality was then monitored for 7 days.

mice = experiment: Acute toxicity study in mice; assay type: in vivo; details: intravenous (i.v.) single injection, 7 days
Method: as §3, §4

SFH-1 = experiment: In vitro inhibition assay, IPM hydrolysis by SFH-1; assay type: biochemical; details: even in the presence of 100 μM SFC
Method: as §2

[7] = Human liver microsomal stability test; assay type: in vitro ADME; details: 100 nM compound, 0.1 mg protein/ml, 35 min, 37°C
Method: Human liver microsomal stability tests were performed by Sumika Chemical Analysis Service (Osaka, Japan). Compounds (100 nM) were incubated with human liver microsomes (0.1 mg protein/ml) for 35 min at 37°C and subjected to liquid chromatography-tandem mass spectrometry (LC-MS/MS) for quantification of the loss of the tested compounds.

HeLa cells = experiment: Toxicity assay in HeLa cells (CellTiter 96 AQueous); assay type: cell-based; details: 24 h exposure, cell proliferation assay
Method: HeLa cells were seeded at 5,000 cells per well in 96-well plates and cultured in Dulbecco’s modified Eagle’s medium (DMEM) (Wako Pure Chemical Industries, Osaka, Japan). After incubation for 24 h at 37°C with 5% CO2, staurosporine (Sigma-Aldrich, St. Louis, MO) and SHCs were added to each well (final DMSO concentration was 1%), after which the plates were incubated for another 24 h. Twenty microliters of tetrazolium solution, obtained from a CellTiter 96 AQueous one-solution cell proliferation assay kit (Promega, Madison, WI), was added into each well. The plate was incubated for 3 h under the same conditions mentioned above, and the absorbance at 490 nm was measured for the determination of cell proliferation.

[8] = tested on: P. aeruginosa PAO1/pME-NDM-1; experiment: Susceptibility testing, NDM-1-producing P. aeruginosa PAO1; assay type: cell-based; details: Pseudomonas aeruginosa
Method: as §1

[9] = tested on: IMP-1-producing E. coli NUBL-24; experiment: Mouse infection model, E. coli NUBL-24, survival; assay type: in vivo, mice
Method: as §3

E. coli DH5α/pBC-VIM-2 = experiment: Susceptibility and checkerboard testing, VIM-2-producing E. coli; assay type: cell-based, Escherichia coli; details: for MIC: Escherichia coli
Method: as §1
Unless noted otherwise, the FIC index was defined as the lowest value among all obtained values. The synergistic effect was defined as the effect observed when the FIC index value was ≤0.5.

E. coli DH5α/pBC-TMB-2 = experiment: Susceptibility testing, TMB-2-producing E. coli; assay type: cell-based; details: Escherichia coli
Method: as §1

[10] = PAO1, read-out: MIC of MPM + inhibitor (10 μg/ml)
[11] = PAO1, read-out: MIC of MPM + inhibitor (50 μg/ml)
[12] = read-out: MIC of MPM + inhibitor (8 μg/ml)
[13] = read-out: MIC of MPM + inhibitor (32 μg/ml)

SMILES: Cc1oc(C)c(S(N)(=O)=O)c1C(=O)O [SFC, 2,5-dimethyl-4-sulfamoylfuran-3-carboxylic acid]
- MIC [1, 10]: 32 µg/mL
- MIC [1, 11]: 16 µg/mL
- MIC [2, 12]: 4 µg/mL
- MIC [2, 13]: 2 µg/mL
- Reduction of MPM MIC50 [3]: 8 fold
- Ki (VIM-2): 2810 nM
- MIC [4, 12]: 0.063 µg/mL
- MIC [4, 13]: 0.063 µg/mL
- MIC [5, 12]: 2 µg/mL
- MIC [5, 13]: 1 µg/mL
- LD50 at 7 days [6]: > 1000 mg/kg
- 50% lethal dose (LD50) (mice): 246 mg/kg of body weight
- Inhibition of IPM hydrolyzing activity of SFH-1 (SFH-1): did not inhibit
- Stability in human liver microsomes [7]: did not lead to structural changes; also recorded: high stability
- Toxicity in HeLa cells (HeLa cells): very low toxicity; also recorded: low toxicity
- MIC [8, 10]: 4 µg/mL
- MIC [8, 11]: 4 µg/mL
- Mice rescued from death at the endpoint ([9]; MPM (0.2 mg/kg)-SFC (100 mg/kg) combination therapy, i.p., 7 days following infection): 90%
- Rescue of infected mice by monotherapy ([9]; SFC 100 mg/kg or MPM 0.2 mg/kg i.p. at 1 and 3 h after infection, within 48 h): failed to rescue mice
- MIC ceftazidime + 2 μg/mL compound (E. coli DH5α/pBC-VIM-2; E. coli DH5α/pBC-VIM-2): 16 µg/mL
- Reduction in CAZ MIC (E. coli DH5α/pBC-VIM-2; E. coli DH5α/pBC-VIM-2, 2 μg/ml compound): no reduction
- MIC (E. coli DH5α/pBC-VIM-2; read-out: MIC of CAZ + inhibitor (8 μg/ml)): 4 µg/mL
- MIC (E. coli DH5α/pBC-VIM-2; read-out: MIC of CAZ + inhibitor (32 μg/ml)): 2 µg/mL
- FIC index (E. coli DH5α/pBC-VIM-2; checkerboard with CAZ, E. coli DH5α/pBC-VIM-2, lowest value): 0.31
- MIC (E. coli DH5α/pBC-TMB-2; [12]): 0.5 µg/mL
- MIC (E. coli DH5α/pBC-TMB-2; [13]): 0.125 µg/mL

From publication PMC7078479, “Sulfamoyl Heteroarylcarboxylic Acids as Promising Metallo-β-Lactamase Inhibitors for Controlling Bacterial Carbapenem Resistance” (mBio, 2020)
